Test results reported in paper PMC6139576 (Journal of Medicinal Chemistry, 2018).

Key:
[1] = target: T1, rat EAAT4 (rEAAT4) (Rattus norvegicus, UniProt O35921); test: [3H]-D-Asp uptake assay, rEAAT4-tsA201 cells; format: cell-based
T1 sequence (O35921 1-561): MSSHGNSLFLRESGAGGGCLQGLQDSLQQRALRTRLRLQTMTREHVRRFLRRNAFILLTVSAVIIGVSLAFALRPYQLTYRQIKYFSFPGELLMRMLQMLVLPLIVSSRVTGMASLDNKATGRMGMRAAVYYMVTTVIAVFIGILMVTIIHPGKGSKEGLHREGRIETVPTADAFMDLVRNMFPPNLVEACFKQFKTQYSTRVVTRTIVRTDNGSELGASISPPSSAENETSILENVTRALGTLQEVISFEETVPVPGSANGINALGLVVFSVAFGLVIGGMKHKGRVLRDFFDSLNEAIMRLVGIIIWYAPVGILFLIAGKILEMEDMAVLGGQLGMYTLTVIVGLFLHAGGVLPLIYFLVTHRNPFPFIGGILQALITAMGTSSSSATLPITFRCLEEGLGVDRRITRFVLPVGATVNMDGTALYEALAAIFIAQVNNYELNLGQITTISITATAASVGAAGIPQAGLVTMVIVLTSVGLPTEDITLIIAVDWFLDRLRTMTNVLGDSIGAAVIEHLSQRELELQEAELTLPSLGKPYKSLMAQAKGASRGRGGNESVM

[2] = target: T2, human EAAT3 (hEAAT3) (Homo sapiens, UniProt P43005); test: [3H]-D-Asp uptake assay, hEAAT3-HEK293 cells; format: cell-based; conditions: hEAAT3 pIC50 ± S.E.M.
T2 sequence (P43005 1-524): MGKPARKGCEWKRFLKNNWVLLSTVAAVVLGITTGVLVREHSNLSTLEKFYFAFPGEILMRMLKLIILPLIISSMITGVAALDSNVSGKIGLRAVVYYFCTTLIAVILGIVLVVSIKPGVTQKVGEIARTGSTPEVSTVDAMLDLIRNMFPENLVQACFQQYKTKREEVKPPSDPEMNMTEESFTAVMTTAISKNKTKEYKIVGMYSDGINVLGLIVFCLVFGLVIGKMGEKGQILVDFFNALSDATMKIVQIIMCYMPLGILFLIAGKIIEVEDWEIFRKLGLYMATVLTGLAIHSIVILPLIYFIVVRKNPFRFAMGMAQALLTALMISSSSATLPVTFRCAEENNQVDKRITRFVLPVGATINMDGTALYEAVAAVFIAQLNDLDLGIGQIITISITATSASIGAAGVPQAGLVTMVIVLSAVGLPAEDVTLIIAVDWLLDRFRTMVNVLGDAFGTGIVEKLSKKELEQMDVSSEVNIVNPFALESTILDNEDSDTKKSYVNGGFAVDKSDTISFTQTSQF

[3] = target: human EAAT2 (hEAAT2) (Homo sapiens, UniProt P43004); test: [3H]-D-Asp uptake assay, hEAAT2-HEK293 cells; format: cell-based
[4] = target: human EAAT1 (hEAAT1) (Homo sapiens, UniProt P43003); test: [3H]-D-Asp uptake assay, hEAAT1-HEK293 cells; format: cell-based
[5] = test system: EAAT3; conditions: cited from earlier work

Sequence of human EAAT2 (hEAAT2) (P43004 whole entry, the tested form may be a part): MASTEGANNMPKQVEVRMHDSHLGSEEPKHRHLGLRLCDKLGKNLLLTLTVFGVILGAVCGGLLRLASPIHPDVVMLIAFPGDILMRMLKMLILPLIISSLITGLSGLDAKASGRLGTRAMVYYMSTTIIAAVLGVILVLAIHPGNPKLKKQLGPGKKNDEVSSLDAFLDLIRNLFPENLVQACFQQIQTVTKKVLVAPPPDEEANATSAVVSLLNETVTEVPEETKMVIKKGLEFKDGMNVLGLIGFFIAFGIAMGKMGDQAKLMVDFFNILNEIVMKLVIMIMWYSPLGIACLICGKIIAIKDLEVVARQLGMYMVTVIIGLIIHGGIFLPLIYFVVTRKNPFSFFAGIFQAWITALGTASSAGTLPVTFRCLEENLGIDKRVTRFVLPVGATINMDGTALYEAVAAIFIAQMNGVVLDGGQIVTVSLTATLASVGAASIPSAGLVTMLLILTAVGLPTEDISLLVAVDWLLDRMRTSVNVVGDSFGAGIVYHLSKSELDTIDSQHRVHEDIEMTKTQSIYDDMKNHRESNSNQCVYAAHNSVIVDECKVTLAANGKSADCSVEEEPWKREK
Sequence of human EAAT1 (hEAAT1) (P43003 whole entry, the tested form may be a part): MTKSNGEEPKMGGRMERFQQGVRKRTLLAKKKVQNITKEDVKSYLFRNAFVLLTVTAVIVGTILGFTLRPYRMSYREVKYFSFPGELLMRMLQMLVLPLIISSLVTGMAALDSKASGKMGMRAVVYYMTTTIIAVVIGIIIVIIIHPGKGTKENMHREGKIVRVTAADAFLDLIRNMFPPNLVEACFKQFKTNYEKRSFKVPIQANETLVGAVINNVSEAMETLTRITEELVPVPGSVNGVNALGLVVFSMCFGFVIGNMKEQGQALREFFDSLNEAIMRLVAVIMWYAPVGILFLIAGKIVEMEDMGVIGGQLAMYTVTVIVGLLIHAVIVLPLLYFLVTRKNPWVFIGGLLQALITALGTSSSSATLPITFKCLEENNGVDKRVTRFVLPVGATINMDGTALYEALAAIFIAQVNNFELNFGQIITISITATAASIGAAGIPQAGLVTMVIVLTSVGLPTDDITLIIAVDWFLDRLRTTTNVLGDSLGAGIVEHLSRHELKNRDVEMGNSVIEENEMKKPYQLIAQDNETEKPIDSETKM

SMILES: N[C@H](C(=O)O)[C@H](OCC1CC1)C(=O)O (racemic) [DL-threo-19a, (DL-threo)-3-(Cyclopropylmethoxy)aspartate]
- IC50 [1]: 15.8 µM
- IC50 [2]: 3.72 µM

SMILES: N[C@H](C(=O)O)[C@H](OCc1cccc(NC(=O)Cc2ccc(C(F)(F)F)cc2)c1)C(=O)O [3d]
- fold increased IC50 at rEAAT4 relative to L-TFB-TBOA ([1]; versus L-TFB-TBOA (3a)): 5–10 fold
- fold increased IC50 at hEAAT2 relative to L-TFB-TBOA ([3]; versus L-TFB-TBOA (3a)): 5–10 fold
- fold increased IC50 at hEAAT1 relative to L-TFB-TBOA ([4]; versus L-TFB-TBOA (3a)): 5–10 fold

SMILES: N[C@H](C(=O)O)[C@H](OCc1ccsc1)C(=O)O (racemic) [DL-threo-19b, (DL-threo)-3-(Thiophen-3-ylmethoxy)aspartate]
- IC50 [1]: 4.27 µM

SMILES: C#CCO[C@H](C(=O)O)[C@@H](N)C(=O)O (racemic) [DL-erythro-19c, (DL-erythro)-3-(Prop-2-yn-1-yloxy)aspartate]
- IC50 [1]: ~100 µM
- IC50 [2]: 28.2 µM
- IC50 ([3]; hEAAT2 IC50, [3H]-D-Asp uptake, HEK293 cells): 82 µM
- IC50 ([4]; hEAAT1 IC50, [3H]-D-Asp uptake, HEK293 cells): 99 µM

SMILES: N[C@H](C(=O)O)[C@H](Cc1ccccc1)C(=O)O [compound 4, L-threo-3-benzylaspartate]
- preference as an inhibitor for EAAT3 over EAAT1 and EAAT2 [5]: 10 fold
